Assay results taken from patent publication US20230357162A1, “COMPOUNDS, COMPOSITIONS AND METHODS” (Denali Therapeutics Inc., priority 2020, published 2023).

System: IL-1β secretion, THP-1 cells
Test: IL-1β secretion assay in PMA-differentiated THP-1 cells stimulated with LPS and nigericin (ELISA readout)
Format: cell-based
Conditions: Homo sapiens, THP-1, inhibition of IL-1β secretion, 25 ng/mL LPS then nigericin
How it was run: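 THP-1 cells differentiated with 5 ng/mL PMA for 40 h, primed in serum-free medium with 25 ng/mL LPS for 2 h, then compound (0.5% DMSO) for 1 h before nigericin for 2 h at 37°C. Supernatant IL-1β quantified by ELISA; normalized to high (LPS + 5 µM nigericin) and low (LPS only) controls.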

| SMILES | IC50 (class column of Table 3) | IC50 (numeric column of Table 3) |
| --- | --- | --- |
| O=C(Cn1nc(OC2CC2)c2cc(C(F)(F)F)ccc2c1=O)Nc1ncc(F)cn1 [Example 174, 2-(4-cyclopropoxy-1-oxo-6-(trifluoromethyl)phthalazin-2(1H)-yl)-N-(5-fluoropyrimidin-2-yl)acetamide] | < 10000 nM | 515 nM |
| CC(C)c1nn(CC(=O)NCC2CCCCO2)c(=O)c2ccc(Br)cc12 (centres unmarked) [Example 84, 2-(6-bromo-1-oxo-4-propan-2-ylphthalazin-2-yl)-N-(oxan-2-ylmethyl)acetamide] | < 10000 nM | 3710 nM |
| CC(C)c1nn(CC(=O)Nc2cnccn2)c(=O)c2ccc(Br)cc12 [Example 71, 2-(6-bromo-1-oxo-4-propan-2-ylphthalazin-2-yl)-N-pyrazin-2-ylacetamide] | < 10000 nM | 499 nM |
| CCN1CCC[C@@H](NC(=O)Cn2nc(C(C)C)c3cc(Br)ccc3c2=O)C1 [Example 3, (R)-2-(6-Bromo-4-isopropyl-1-oxophthalazin-2(1H)-yl)-N-(1-ethylpiperidin-3-yl)acetamide] | < 10000 nM | 159 nM |
| CC(C)c1nn(CC(=O)Nc2cc(C(F)(F)F)nn2C)c(=O)c2ccc(Br)cc12 [Example 116, 2-(6-bromo-1-oxo-4-propan-2-ylphthalazin-2-yl)-N-[2-methyl-5-(trifluoromethyl)pyrazol-3-yl]acetamide] | < 10000 nM | 4600 nM |
| CC(F)c1nn(CC(=O)Nc2ncccn2)c(=O)c2ccc(Br)cc12 (centres unmarked) [Example 80, 2-[6-bromo-4-(1-fluoroethyl)-1-oxo-phthalazin-2-yl]-N-pyrimidin-2-yl-acetamide] | < 10000 nM | 197 nM |
| O=C(Cn1nc(C(F)F)c2cc(Br)ccc2c1=O)Nc1ncc(Cl)cn1 [Example 135] | < 10000 nM | 424 nM |
| CC(C)c1nn(CC(=O)NCC2CCC2)c(=O)c2ccc(Br)cc12 [Example 127, 2-(6-bromo-1-oxo-4-propan-2-ylphthalazin-2-yl)-N-(cyclobutylmethyl)acetamide] | < 10000 nM | 1050 nM |
| CC(C)c1nn(CC(=O)NC2CN(C(=O)OC(C)(C)C)CC(F)(F)C2)c(=O)c2ccc(Br)cc12 (centres unmarked) [Example 10, tert-Butyl-5-[[2-(6-bromo-4-isopropyl-1-oxo-phthalazin-2-yl)acetyl]amino]-3,3-difluoro-piperidine-1-carboxylate] | < 10000 nM | 3050 nM |
| CC(C)c1nn(CC(=O)Nc2ccc(C3CC3)cn2)c(=O)c2ccc(Br)cc12 [Example 111, 2-(6-bromo-1-oxo-4-propan-2-ylphthalazin-2-yl)-N-(5-cyclopropylpyridin-2-yl)acetamide] | < 10000 nM | 796 nM |
| CC(C)c1nn(CC(=O)NC2CCCOC2)c(=O)c2ccc(Br)cc12 (centres unmarked) [Example 125, 2-(6-bromo-1-oxo-4-propan-2-ylphthalazin-2-yl)-N-(oxan-3-yl)acetamide] | < 10000 nM | 3060 nM |
| CC(C)c1nn(CC(=O)Nc2ncncc2F)c(=O)c2cc(F)c(Br)cc12 [Example 85, 2-(6-bromo-7-fluoro-1-oxo-4-propan-2-ylphthalazin-2-yl)-N-(5-fluoropyrimidin-4-yl)acetamide] | < 10000 nM | 382 nM |
| CC(C)c1nn(CC(=O)NC23CC(F)(C2)C3)c(=O)c2ccc(Br)cc12 [Example 118, 2-(6-bromo-1-oxo-4-propan-2-ylphthalazin-2-yl)-N-(3-fluoro-1-bicyclo[1.1.1]pentanyl)a cetamide] | < 10000 nM | 737 nM |
| CCN1CCCC1CNC(=O)Cn1nc(C(C)C)c2cc(Br)ccc2c1=O (centres unmarked) [Example 109, 2-(6-bromo-1-oxo-4-propan-2-ylphthalazin-2-yl)-N-[(1-ethylpyrrolidin-2-yl)methyl]acetamide] | < 10000 nM | 5810 nM |
| O=C(Cn1nc(OC2CC2)c2cc(Br)ccc2c1=O)N[C@@H]1CCCN(C2CCC2)C1 [Example 177] | < 10000 nM | 213 nM |
| CC(C)c1nn(CC(=O)Nc2ncccn2)c(=O)c2ccc(Br)cc12 [Example 39, 2-(6-bromo-1-oxo-4-propan-2-ylphthalazin-2-yl)-N-pyrimidin-2-ylacetamide] | < 10000 nM | 54 nM |
| O=C(Cn1nc(C(F)F)c2c(F)c(C3CC3)ccc2c1=O)Nc1ncc(F)cn1 [Example 184, 2-[6-cyclopropyl-4-(difluoromethyl)-5-fluoro-1-oxophthalazin-2-yl]-N-(5-fluoropyrimidin-2-yl)acetamide] | < 10000 nM | 179 nM |
| CC(C)c1nn(CC(=O)Nc2nc(Cl)ccc2F)c(=O)c2ccc(Br)cc12 [Example 36, 2-(6-bromo-1-oxo-4-propan-2-ylphthalazin-2-yl)-N-(6-chloro-3-fluoropyridin-2-yl)acetamide] | < 10000 nM | 2800 nM |
| O=C(Cn1nc(C(F)(F)F)c2cc(Br)ccc2c1=O)Nc1ncncc1F [Example 131, 2-[6-bromo-1-oxo-4-(trifluoromethyl)phthalazin-2-yl]-N-(5-fluoropyrimidin-4-yl)acetamide] | < 10000 nM | 1270 nM |
| O=C(Cn1nc(CF)c2c(F)c(Br)ccc2c1=O)Nc1ncc(F)cn1 [Example 148, 2-[6-bromo-5-fluoro-4-(fluoromethyl)-1-oxophthalazin-2-yl]-N-(5-fluoropyrimidin-2-yl)acetamide] | < 10000 nM | 97 nM |
| Cc1cc(NC(=O)Cn2nc(C(C)C)c3cc(Br)ccc3c2=O)n(C)n1 [Example 64, 2-(6-bromo-1-oxo-4-propan-2-ylphthalazin-2-yl)-N-(2,5-dimethylpyrazol-3-yl)acetamide] | < 10000 nM | 392 nM |
| CC(C)c1nn(CC(=O)NCC2CN(C)CCO2)c(=O)c2ccc(Br)cc12 (centres unmarked) [Example 65, 2-(6-bromo-1-oxo-4-propan-2-ylphthalazin-2-yl)-N-[(4-methylmorpholin-2-yl)methyl]acetamide] | > 15000 nM | 22700 nM |
| CC(C)c1nn(CC(=O)Nc2cccnc2)c(=O)c2ccc(Br)cc12 [Example 55, 2-(6-bromo-1-oxo-4-propan-2-ylphthalazin-2-yl)-N-pyridin-3-ylacetamide] | < 10000 nM | 710 nM |
| C[C@H]1C[C@@H](Oc2nn(CC(=O)Nc3ncc(F)cn3)c(=O)c3ccc(Br)cc23)C1 [Example 157, 2-[6-bromo-4-(3-cis-methylcyclobutoxy)-1-oxo-phthalazin-2-yl]-N-(5-fluoropyrimidin-2-yl)acetamide] | < 10000 nM | 139 nM |
| CCN1CC(NC(=O)Cn2nc(C(C)C)c3cc(Br)ccc3c2=O)CC(F)(F)C1 (centres unmarked) [Example 12] | < 10000 nM | 2590 nM |
| COc1ccc(NC(=O)Cn2nc(C(C)C)c3cc(Br)ccc3c2=O)cn1 [Example 29, 2-(6-bromo-1-oxo-4-propan-2-ylphthalazin-2-yl)-N-(6-methoxypyridin-3-yl)acetamide] | < 10000 nM | 286 nM |
| CC(C)c1nn(CC(=O)Nc2ncncc2F)c(=O)c2ccc(C(F)F)cc12 [Example 21, 2-[6-(difluoromethyl)-1-oxo-4-propan-2-ylphthalazin-2-yl]-N-(5-fluoropyrimidin-4-yl)acetamide] | < 10000 nM | 1060 nM |
| CC(C)c1nn(CC(=O)Nc2ncc(C(F)(F)F)cc2F)c(=O)c2ccc(Br)cc12 [Example 41, 2-(6-bromo-1-oxo-4-propan-2-ylphthalazin-2-yl)-N-[3-fluoro-5-(trifluoromethyl)pyridin-2-yl]acetamide] | < 10000 nM | 163 nM |
